Experimental data as given in publication PMC7979765, “trans-Translation inhibitors bind to a novel site on the ribosome and clear Neisseria gonorrhoeae in vivo” (Nature Communications, 2021).
≈ marks a conversion by molar mass, not a printed value. Where “and” joins values, the source holds several entries; their conditions need not be identical. Equal entries are not always repeated.

Experiments:
[1] = tested on: N. gonorrhoeae ATCC 49226; assay: Time-kill assay
Neisseria gonorrhoeae = assay: MIC, microbroth dilution, G77L medium; type: cell-based; details: Neisseria gonorrhoeae ATCC 49226; source data, individual replicates
HeLa cells [2] = assay: Mammalian cell cytotoxicity (CC50); type: cell-based, human; details: HeLa, replicates
Procedure: The half maximal cytotoxic concentration (CC50) of each compound against HeLa cells (ATCC CCL-2) was measured as previously described. […] The mean values for each biological replicate were averaged, and the CC50 was determined using a 4-parameter nonlinear curve fitting algorithm (GraphPad Prism). The average of the CC50s from two biological replicates was calculated and reported.

[3] = Aqueous solubility (nephelometric); type: physicochemical
Escherichia coli = assay: microbe, parasite or virus in culture; type: cell-based; details: E. coli KLE701 (ΔtolC::tet); source data, individual replicates
HeLa cells [4] = assay: Mammalian cell cytotoxicity (CC50); type: cell-based, human; details: one value per replicate
trans-translation = assay: microbe, parasite or virus in culture; type: cell-based, Escherichia coli; details: Eco Luc reporter, one value per replicate; read-out: IC50
Procedure: To verify that MBX-4132 retains activity as an inhibitor of trans-translation, we measured its dose-dependent activity against the non-stop luciferase reporter assay strain E. coli SB75 ΔtolC::kan (pluc-trpAt) essentially as described, with modifications. Briefly, serial 1.5-fold dilutions of MBX-4132 in DMSO were transferred to 96-well assay plates (Costar 3195), followed by the addition of 50 µl of an overnight culture of SB75 ΔtolC::kan (pluc-trpAt) that had been diluted to a final OD600 of 0.4 with LB media supplemented with 100 µg ampicillin/ml and 1 mM IPTG. […] The assay plates were incubated at room temperature for 2 h, and 50 µl of BrightGlo (Promega) bioluminescence reagent was added to each well. After 10 min incubation, bioluminescence intensity was measured using an Envision multi-label plate reader (Perkin Elmer). Each assay comprised three technical replicates, and the experiment was repeated three times. The fold induction for each MBX-4132 treated sample as compared to the DMSO-only sample was calculated for each technical replicate, and the average and standard deviation of the three technical was calculated. The IC50 was determined using a 4-parameter nonlinear curve fitting algorithm (GraphPad Prism).

[5] = Liver microsome stability, murine; type: in vitro ADME, mouse; details: murine liver microsomes
Procedure: To examine potential for first-pass metabolism of analogs in the liver, the stability of analogs in the presence of liver microsome preparations (Eurofins Discovery for human, dog and rat; Xenotech for mouse) was measured using the method of Kuhnz, et al.[50]. for murine studies and Oback for the dog, human and rat studies. The amount of parent compound remaining after incubation with microsomes in the presence of NADPH over a 30 min time range was measured using a reverse-phase liquid chromatography/mass spectroscopy method that was customized for each compound. Half-lives were calculated using linear regression analysis of several time points.

CO/N=C(\C(=O)N[C@@H]1C(=O)N2C(C(=O)O)=C(CSc3nc(=O)c(=O)[nH]n3C)CS[C@H]12)c1csc(N)n1 [CRO, reference compound]
AVE CFU/ml ([1]; 1X MIC, 0 h): 9800000 CFU/ml | AVE CFU/ml ([1]; 1X MIC, 1 h): 8.20E+06 CFU/ml and 8200000 CFU/ml | CFU/mL, replicates 1-3 ([1]; 1X MIC, 1 h): 8200000 CFU/mL and 8000000 CFU/mL and 8400000 CFU/mL | AVE CFU/ml ([1]; 1X MIC, 2 h): 3.47E+06 CFU/ml and 3466667 CFU/ml | CFU/mL, replicates 1-3 ([1]; 1X MIC, 2 h): 3800000 CFU/mL and 3200000 CFU/mL and 3400000 CFU/mL | AVE CFU/ml ([1]; 1X MIC, 4 h): 60666.7 CFU/ml and 6.07E+04 CFU/ml | CFU/mL, replicates 1-3 ([1]; 1X MIC, 4 h): 60000 CFU/mL and 58000 CFU/mL and 64000 CFU/mL | AVE CFU/ml ([1]; 1X MIC, 6 h): 27333.3 CFU/ml and 2.73E+04 CFU/ml | CFU/mL, replicates 1-3 ([1]; 1X MIC, 6 h): 24000 CFU/mL and 32000 CFU/mL and 26000 CFU/mL | AVE CFU/ml ([1]; 1X MIC, 8 h): 5733.33 CFU/ml and 5.73E+03 CFU/ml | CFU/mL, replicates 1-3 ([1]; 1X MIC, 8 h): 5800 CFU/mL and 5400 CFU/mL and 6000 CFU/mL | AVE CFU/ml ([1]; 1X MIC, 24 h): 2466667 CFU/ml and 2.47E+06 CFU/ml | CFU/mL, replicates 1-3 ([1]; 1X MIC, 24 h): 2400000 CFU/mL and 2200000 CFU/mL and 2800000 CFU/mL | AVE CFU/ml ([1]; 4X MIC, 0 h): 9800000 CFU/ml | AVE CFU/ml ([1]; 4X MIC, 1 h): 7.67E+06 CFU/ml and 7666667 CFU/ml | CFU/mL, replicates 1-3 ([1]; 4X MIC, 1 h): 7800000 CFU/mL and 7200000 CFU/mL and 8000000 CFU/mL | AVE CFU/ml ([1]; 4X MIC, 2 h): 3.87E+06 CFU/ml and 3866667 CFU/ml | CFU/mL, replicates 1-3 ([1]; 4X MIC, 2 h): 3400000 CFU/mL and 4000000 CFU/mL and 4200000 CFU/mL | AVE CFU/ml ([1]; 4X MIC, 4 h): 40000 CFU/ml and 4.00E+04 CFU/ml | CFU/mL, replicates 1-3 ([1]; 4X MIC, 4 h): 36000 CFU/mL and 42000 CFU/mL (2×) | AVE CFU/ml ([1]; 4X MIC, 6 h): 5266.67 CFU/ml and 5.27E+03 CFU/ml | CFU/mL, replicates 1-3 ([1]; 4X MIC, 6 h): 4400 CFU/mL and 5200 CFU/mL and 6200 CFU/mL | AVE CFU/ml ([1]; 4X MIC, 8 h): 1066.67 CFU/ml and 1.07E+03 CFU/ml | CFU/mL, replicates 1-3 ([1]; 4X MIC, 8 h): 1400 CFU/mL and 800 CFU/mL and 1000 CFU/mL | AVE CFU/ml ([1]; 4X MIC, 24 h): 0 CFU/ml and 0.00E+00 CFU/ml | CFU/mL, replicates 1-3 ([1]; 4X MIC, 24 h): 0 CFU/mL | MIC ([1]; Neisseria gonorrhoeae, ATCC49226): 0.008 µg/mL (≈ 0.0144 µM)

CN(C(=O)c1ccc(Cl)cc1)c1nnc(-c2ccc(F)cc2)o1 [MBX-4076]
MIC (Neisseria gonorrhoeae): 2.073 µg/mL (≈ 6.25 µM) | […] (Fraction DMSO Control) (HeLa cells [2]; [CMPD] 0.78125 µM): 1.197 Fraction DMSO Control and 0.943 Fraction DMSO Control and 1.027 Fraction DMSO Control | […] (Fraction DMSO Control) (HeLa cells [2]; [CMPD] 1.5625 µM): 1.13 Fraction DMSO Control and 0.9796 Fraction DMSO Control and 1.003 Fraction DMSO Control | […] (Fraction DMSO Control) (HeLa cells [2]; [CMPD] 3.125 µM): 1.12 Fraction DMSO Control and 0.9889 Fraction DMSO Control and 1.051 Fraction DMSO Control | […] (Fraction DMSO Control) (HeLa cells [2]; [CMPD] 6.25 µM): 1.086 Fraction DMSO Control and 0.9295 Fraction DMSO Control and 1.003 Fraction DMSO Control | […] (Fraction DMSO Control) (HeLa cells [2]; [CMPD] 12.5 µM): 1.084 Fraction DMSO Control and 0.9742 Fraction DMSO Control and 1.016 Fraction DMSO Control | […] (Fraction DMSO Control) (HeLa cells [2]; [CMPD] 25 µM): 1.061 Fraction DMSO Control and 0.9434 Fraction DMSO Control and 0.9966 Fraction DMSO Control | […] (Fraction DMSO Control) (HeLa cells [2]; [CMPD] 50 µM): 1.042 Fraction DMSO Control and 0.8579 Fraction DMSO Control and 0.8811 Fraction DMSO Control | […] (Fraction DMSO Control) (HeLa cells [2]; [CMPD] 100 µM): 0.7388 Fraction DMSO Control and 0.6179 Fraction DMSO Control and 0.6661 Fraction DMSO Control | Average solubility [3]: <3.1 µM | Solubility ([3]; single replicates): 3.1 µM and <3.1 µM (2×) | MIC (Escherichia coli): 8.293 µg/mL and 4.147 µg/mL and 2.073 µg/mL | CC50 (HeLa cells [4]): ≥ 100 µM

O=C(Nc1nnco1)c1ccc(Cl)cc1 [MBX-4367]
IC50 (trans-translation): ≥ 25 µM | MIC (Neisseria gonorrhoeae): 11.181 µg/mL (≈ 50 µM) | NORMALIZED DATA (Fraction DMSO Control) (HeLa cells [2]; [CMPD] 0.78125 µM): 1.189 Fraction DMSO Control and 0.9321 Fraction DMSO Control and 1.018 Fraction DMSO Control | NORMALIZED DATA (Fraction DMSO Control) (HeLa cells [2]; [CMPD] 1.5625 µM): 1.137 Fraction DMSO Control and 0.9966 Fraction DMSO Control and 1.019 Fraction DMSO Control | NORMALIZED DATA (Fraction DMSO Control) (HeLa cells [2]; [CMPD] 3.125 µM): 1.148 Fraction DMSO Control and 1.015 Fraction DMSO Control and 1.071 Fraction DMSO Control | NORMALIZED DATA (Fraction DMSO Control) (HeLa cells [2]; [CMPD] 6.25 µM): 1.124 Fraction DMSO Control and 0.9955 Fraction DMSO Control and 1.053 Fraction DMSO Control | NORMALIZED DATA (Fraction DMSO Control) (HeLa cells [2]; [CMPD] 12.5 µM): 1.13 Fraction DMSO Control and 1.055 Fraction DMSO Control and 1.044 Fraction DMSO Control | NORMALIZED DATA (Fraction DMSO Control) (HeLa cells [2]; [CMPD] 25 µM): 1.072 Fraction DMSO Control and 0.9837 Fraction DMSO Control and 1.014 Fraction DMSO Control | NORMALIZED DATA (Fraction DMSO Control) (HeLa cells [2]; [CMPD] 50 µM): 1.146 Fraction DMSO Control and 0.9608 Fraction DMSO Control and 0.9961 Fraction DMSO Control | NORMALIZED DATA (Fraction DMSO Control) (HeLa cells [2]; [CMPD] 100 µM): 0.9043 Fraction DMSO Control and 0.7595 Fraction DMSO Control and 0.7474 Fraction DMSO Control | Average MLMS t½ ([5]; average of replicates): <5 min | MLMS t½ ([5]; individual replicates): <5 min | MIC (Escherichia coli): 22.362 µg/ml and >=22.362 µg/ml | CC50 (HeLa cells [4]): ≥ 100 µM
